Results published in patent publication US20100087539A1, “N'--3-AMINO-3-PHENYLPROPEONIC ACID AND THE PHARMACEUTICALLY ACCEPTABLE DERIVATIVES THEREOF, A METHOD FOR THE PRODUCTION AND THE USE THEREOF IN THE FORM OF A MEDICINAL AGENT” (priority 2006, published 2010).
Read-outs that look alike come from different tables or passages of the source.

Key:
T-cellular immunity = T-cellular immunity upon immunization with sheep red blood cells, rosette formation method; format: in vivo, mice; conditions: for Number of rosettes per 10^3 cells: mice, s.c. SRBC with compound (10 mg/kg), splenocytes at day 6; for Stimulation index: rosettes with compound / rosettes with SRBC alone
Protocol: The effect on stimulating T-cellular immunity upon injection with a strong antigen of sheep red blood cells (SRBC) was studied by the rosette formation method.
Outbred male mice weighing 20-22 g were used in the experiment. […] SRBC without dipeptide 1 (negative control) or SRBC with IFA or with GA (positive control) were injected to the control animals; another control group—preimmune animals. At day 6 post immunization a suspension of splenocytes was prepared at a concentration of […] per 1 milliliter. 0.9 ml of the splenocyte suspension and 0.1 ml of a suspension of sheep red blood cells (10^9 cells per milliliter) were placed in glass vials, mixed and incubated for 16 h at 4° C. After incubation, 4 ml of a cold medium was added into the glass vial, carefully mixed; 100 μl of cell suspension was withdrawn using a pipette with a wide-bore mouth, stained with a 0.4% trypan blue solution and the number of rosettes was counted in a Gorjaev's chamber [Friemel H Immunological methods/Translated from German, edited by M. A. Frolova.—Moscow: Mir, 1979, 518 p.]. The results are presented as the number of rosettes formed per […]. The stimulation index was calculated as a ratio of the number of rosettes in the experiment (immunization with SRBC in a mixture with the compound studied) and the number of rosettes in the control (immunization with SRBC alone).

HIV-1/EVK [1] = experiment: microbe, parasite or virus in culture; format: cell-based; conditions: added after virus adsorption; for EC50: read-out: Protection of cells from death PD50
Protocol: The Anti-HIV activity of dipeptide 1 was studied on a highly HIV-sensitive cell culture MT-4. […] Then, aliquots of serial dilutions of dipeptide 1 in DMSO were added into the wells to the final concentrations of 0.1 ng/ml to 1 μg/ml (each concentration in triplicate). The experimental (with the preparation added) and control (without the preparation added) infected cells were cultivated at 37° C. and 5% CO2 for 4 days. […] 3, p. […] The inhibiting dose for dipeptide 1 is 0.4 μM. The dose of the compound protecting the cells from death (PD50) was also determined. […] Additionally, the selectivity index (IS) calculated as a ratio of the toxic dose of dipeptide 1 to the protection dose thereof PD50 (CD50/PD50) was determined.

HIV-1/EVK [2] = experiment: microbe, parasite or virus in culture; format: cell-based; conditions: added simultaneously with the virus
Protocol: The anti-HIV activity of dipeptide 1 was studied on a highly HIV-sensitive cell culture MT-4. The MT-4 cells were added into the wells of a 96-well culture plate and infected with a virus stock (strain HIV-1/EVK) at a multiplicity of infection of 0.2-0.5 tissue culture infective dose per cell, then the test substance was added into a cell suspension simultaneously with the virus to give the final concentration of 0.00001 to 1 μg/ml (each concentration in triplicate) and incubated at 37° C. for 1 h (virus adsorption). On completion of the incubation, the suspension of the infected cells was diluted with a complete growth medium with all supplements as described above containing the preparations in the same concentrations to give the inoculation concentration of 0.5×10^6 cells/ml.
The experimental (with the preparation added) and control (without the preparation added) infected cells and control uninfected cells (without the preparation added) were cultivated at 37° C. and 5% CO2 for 4 days. On completion of the incubation the proportion of viable cells was counted in a Gorjaev's chamber after staining with a 0.4% trypan blue solution and the accumulation level of virus-specific protein p24 was controlled by the immunoenzyme method as described [Fedyuk N. V., Konovalov E. E., Loktev V. B., Uryvaev L. V., Kulyandin S. A., Pokrovsky A. G.//Problems of Virology, 1992, v. 3, p. 135].
In addition, the inhibiting dose ID90 that corresponds to the concentration of dipeptide 1 suppressing the virus production by 90% was determined. […] PD50, the concentration of dipeptide 1 protecting by 50% the infected cells from the virus-induced cytopathic effect was also calculated as described earlier by us [Svinarchuk P. P., Konevetz D. A., Pliasunova O. A., Pokrovsky A. G., Vlassov V. V.//Biochimie, 1993, Bd. 75, S. 243]. […] Comparing the concentrations inducing 50 and 90% inhibition of virus accumulation provides an important characteristic of the anti-viral activity.

B-cellular immunity = B-cellular immunity upon immunization with BSA, specific antibody titer by enzyme-linked immunoassay; format: in vivo, mice; conditions: for Antibody titer (inverse value): mice, s.c. BSA with compound, sera at day 10 post second immunization; for Immunogenicity coefficient: relative to BSA without the preparation
Protocol: 400 μg of BSA was injected subcutaneously to the animals in 0.5 ml of 0.9% NaCl. Three groups of control animals were involved. […] Additionally, glycyrrhizinic acid (GA) was used as a known immunomodulator. Preimmune mice served as a control. At day 21 the second immunization was performed similarly (the injection solution contained 100 μg of BSA and 200 μg of the test compound). At day 10 post the second immunization blood sera were collected. The titer of antibodies was determined by an enzyme-linked immunoassay technique according to the procedure as described [Enzyme-linked immunoassay technique//Edited by T. T. Igo, G. Lenkhoffaju—Moscow: Mir, 1998].

MT-4 cells [3] = conditions: human, 4 days
MT-4 cells [4] = experiment: Cytotoxicity on MT-4 cells (trypan blue viable cell count, 4 days); conditions: concentration reducing by 50% the proportion of viable MT-4 cells
white outbred mice = experiment: Acute toxicity, intraperitoneal injection; format: in vivo
Protocol: 0.5 ml of the compound was injected intraperitoneally to mice weighing 20 g, each group comprising 4 animals. 0.5 ml of sterile sunflower oil was injected to the control mice.

[5] = Human immunodeficiency virus 1, MT4, 96 h, MT-4, HIV-1/EVK, 4 days, read-out: Inhibition of P24 accumulation ID50

Compound	Number of rosettes per 10^3 cells (T-cellular immunity)	Stimulation index (T-cellular immunity)	IS (selectivity index) (HIV-1/EVK [1]; CD50/ID50)	IC50 (HIV-1/EVK [1]; [5])	EC50 (HIV-1/EVK [1]; Human immunodeficiency virus 1, MT4, MT-4, HIV-1/EVK)	Inhibition of P24 accumulation ID90 (HIV-1/EVK [1]; MT-4, HIV-1/EVK, 4 days)	IS (selectivity index) (HIV-1/EVK [2]; CD50/ID50)	IC50 (HIV-1/EVK [2]; [5])	Inhibition of P24 accumulation ID90 (HIV-1/EVK [2]; MT-4, HIV-1/EVK, 4 days)	Antibody titer (inverse value) (B-cellular immunity)	Immunogenicity coefficient (B-cellular immunity)	CD50 (MT-4 cells [3])	EC50 (HIV-1/EVK [1]; MT-4, HIV-1/EVK)	CD50 (MT-4 cells [4])	hazard class (white outbred mice; from LD50, mice)	LD50 (white outbred mice; mice of both sexes)	EC50 (HIV-1/EVK [2]; concentration protecting by 50% the infected cells from virus-induced cytopathic effect, read-out: PD50)
C=C(C)[C@@H]1CC[C@]2(C(=O)NCCCCCCCCC(=O)NC(CC(=O)O)c3ccccc3)CC[C@]3(C)C(CCC4[C@@]5(C)CCC(=O)C(C)(C)C5CC[C@]43C)C12 (stereo partly drawn) [Compound 9]	21 ± 1.4	1.8	14.0	400 nM	500 nM	Not achieved	2135	2.6 nM	198 nM	51200	256	5.6 µM	–	–	–	–	–
CC1(C)[C@@H](O[C@H]2O[C@H](C(=O)O)[C@@H](O)[C@H](O)[C@H]2O[C@@H]2O[C@H](C(=O)O)[C@@H](O)[C@H](O)[C@H]2O)CC[C@]2(C)[C@H]3C(=O)C=C4[C@@H]5C[C@@](C)(C(=O)O)CC[C@]5(C)CC[C@@]4(C)[C@]3(C)CC[C@@H]12 [GA, glycyrrhizinic acid]	24 ± 1.1	2.0	–	–	–	–	–	–	–	5120	25.6	–	–	–	–	–	–
N′-{N-[3-oxo-lupan-28-oyl]-9-aminononanoyl}-3-amino-3-phenylpropionic acid [Compound 1]	24 ± 1.3	–	–	–	–	Not achieved	–	–	100 nM	–	–	–	250 nM	6.8 µM	class 3 of moderately hazardous substances	more than 2500 mg/kg	15 nM
